Source: patent US20220289794A1, “SYNTHETIC ANTIMICROBIAL PEPTIDES” (priority 2019, published 2022)
Values after ≈ are worked out from the molar mass of the structure shown. Non-standard residues stand in square brackets, D forms with d. Residues, ends and D or L forms follow the SMILES beside them. dDip = N[C@@H](C(=O)O)C(c1ccccc1)c1ccccc1; 2Nal = N[C@@H](Cc1ccc2ccccc2c1)C(=O)O; d2Nal = N[C@H](Cc1ccc2ccccc2c1)C(=O)O

Experiments:
[1] = test system: Methicillin-resistant Staphylococcus aureus MRSA (ATCC BAA-1556); conditions: ATCC BAA-1556
S. aureus ATCC 29213 = conditions: ATCC 29213
[2] = test system: Pseudomonas aeruginosa (ATCC 27883); conditions: ATCC 27883
[3] = test system: Escherichia coli (ATCC 25922); conditions: ATCC 25922
in vitro = conditions: human, fresh human red blood cells (washed), pH 7.4
Protocol: Hemolytic Assay. We investigated the hemolytic effect (hemolytic assay) of the compounds on fresh human red blood cells to determine the cytotoxicity of the compounds. The hemolytic assay was conducted by serial dilution using 1% Triton X, 0.2% Triton X and PBS buffer pH 7.4 as controls. […] 3 mL of the fresh blood sample was washed severally by adding about 10 mL PBS buffer pH 7.4 and centrifuge at 4000 G until the supernatant was cleared. The washed blood sample was diluted to 20 mL volume to be used in the study. An aliquot of 190 μL blood sample was added to 10 μL compound sample in an Eppendorf tube and incubated for 30 min. After incubation, it was centrifuged at 4000 G for 5 min. 100 μL supernatant aliquot was diluted with 1 mL PBS buffer, and the absorbance was measured at 567 nm for the sample. % hemolysis is calculated as follows:
Where AX is the absorbance at various serial concentrations A0 absorbance of PBS buffer pH 7.4 AX absorbance of 0.2% Triton X control equivalent to 100%

SMILES	MIC MRSA ATCC BAA-1556 [1]	MIC S. aureus ATCC 29213 (S. aureus ATCC 29213)	MIC P. aeruginosa ATCC 27883 [2]	MIC E. coli ATCC 25922 [3]	HC50 at 0.5 h (in vitro)
N=C(N)NCCC[C@@H](N)C(=O)N[C@H](CCCNC(=N)N)C(=O)N[C@H](CCCNC(=N)N)C(=O)N[C@H](CCCNC(=N)N)C(=O)N[C@@H](C(=O)N[C@@H](C(=O)N[C@@H](C(=O)O)C(c1ccccc1)c1ccccc1)C(c1ccccc1)c1ccccc1)C(c1ccccc1)c1ccccc1 [IFX-067-1] (H-[dR][dR][dR][dR][dDip][dDip][dDip]-OH)	3.1 mg/L (≈ 2.36 µM)	3.1 mg/L (≈ 2.36 µM)	12.5 mg/L (≈ 9.52 µM)	6.2 mg/L (≈ 4.72 µM)	390 µg/mL
N=C(N)NCCC[C@@H](N)C(=O)N[C@@H](CCCNC(=N)N)C(=O)N[C@H](CCCNC(=N)N)C(=O)N[C@@H](CCCNC(=N)N)C(=O)N[C@@H](C(=O)N[C@@H](C(=O)N[C@@H](C(=O)O)C(c1ccccc1)c1ccccc1)C(c1ccccc1)c1ccccc1)C(c1ccccc1)c1ccccc1 [IFX-068-1] (H-[dR]R[dR]R[dDip][dDip][dDip]-OH)	6.2 mg/L (≈ 4.72 µM)	3.1 mg/L (≈ 2.36 µM)	25 mg/L (≈ 19 µM)	12.5 mg/L (≈ 9.52 µM)	355 µg/mL
N=C(N)NCCC[C@@H]1NC(=O)[C@@H](CCCNC(=N)N)NC(=O)[C@H](CCCNC(=N)N)NC(=O)[C@@H](C(c2ccccc2)c2ccccc2)NC(=O)[C@@H](C(c2ccccc2)c2ccccc2)NC(=O)[C@@H](C(c2ccccc2)c2ccccc2)NC(=O)[C@@H](CCCNC(=N)N)NC1=O [IFX-070, c[Arg-arg-Arg-arg-dip-dip-dip]] (cyclo(R[dR]R[dR][dDip][dDip][dDip]))	1.5 mg/L (≈ 1.16 µM)	3.1 mg/L (≈ 2.39 µM)	12.5 mg/L (≈ 9.66 µM)		340 µg/mL
N=C(N)NCCC[C@@H]1NC(=O)[C@H](CCCNC(=N)N)NC(=O)[C@H](CCCNC(=N)N)NC(=O)[C@@H](CCCNC(=N)N)NC(=O)[C@H](Cc2ccc3ccccc3c2)NC(=O)[C@H](Cc2ccc3ccccc3c2)NC(=O)[C@H](Cc2ccc3ccccc3c2)NC1=O [IFX-080, c[arg-Arg-Arg-Arg-NaI-NaI-NaI]] (cyclo([dR]RRR[2Nal][2Nal][2Nal]))			12.5 mg/L (≈ 10.3 µM)		200 µg/mL
N=C(N)NCCC[C@H]1NC(=O)[C@@H](CCCNC(=N)N)NC(=O)[C@@H](CCCNC(=N)N)NC(=O)[C@@H](Cc2ccc3ccccc3c2)NC(=O)[C@@H](Cc2ccc3ccccc3c2)NC(=O)[C@@H](Cc2ccc3ccccc3c2)NC(=O)[C@@H](CCCNC(=N)N)NC1=O [IFX-081, c[arg-arg-arg-arg-naI-naI-naI]] (cyclo([dR][dR][dR][dR][d2Nal][d2Nal][d2Nal]))			50 mg/L (≈ 41.1 µM)		200 µg/mL
N=C(N)NCCC[C@@H]1NC(=O)[C@@H](CCCNC(=N)N)NC(=O)[C@H](CCCNC(=N)N)NC(=O)[C@@H](CCCNC(=N)N)NC(=O)[C@@H](Cc2ccc3ccccc3c2)NC(=O)[C@@H](Cc2ccc3ccccc3c2)NC(=O)[C@@H](Cc2ccc3ccccc3c2)NC1=O [IFX-082, c[arg-Arg-arg-Arg-naI-naI-naI]] (cyclo([dR]R[dR]R[d2Nal][d2Nal][d2Nal]))			12.5 mg/L (≈ 10.3 µM)		150 µg/mL
N=C(N)NCCC[C@@H]1NC(=O)[C@@H](CCCNC(=N)N)NC(=O)[C@H](CCCNC(=N)N)NC(=O)[C@@H](CCCNC(=N)N)NC(=O)[C@@H](Cc2ccc3ccccc3c2)NC(=O)[C@H](Cc2ccc3ccccc3c2)NC(=O)[C@@H](Cc2ccc3ccccc3c2)NC1=O [IFX-083, c[arg-Arg-arg-Arg-naI-NaI-naI]] (cyclo([dR]R[dR]R[d2Nal][2Nal][d2Nal]))			12.5 mg/L (≈ 10.3 µM)		170 µg/mL
N=C(N)NCCC[C@@H]1NC(=O)[C@@H](CCCNC(=N)N)NC(=O)[C@H](CCCNC(=N)N)NC(=O)[C@@H](Cc2ccc3ccccc3c2)NC(=O)[C@@H](Cc2ccc3ccccc3c2)NC(=O)[C@@H](Cc2ccc3ccccc3c2)NC(=O)[C@@H](CCCNC(=N)N)NC1=O [IFX-084, c[Arg-arg-Arg-arg-naI-naI-naI]] (cyclo(R[dR]R[dR][d2Nal][d2Nal][d2Nal]))	1.5 mg/L (≈ 1.23 µM)	3.1 mg/L (≈ 2.55 µM)	12.5 mg/L (≈ 10.3 µM)		400 µg/mL
N=C(N)NCCC[C@@H]1NC(=O)[C@H](Cc2ccc3ccccc3c2)NC(=O)[C@@H](Cc2ccc3ccccc3c2)NC(=O)[C@H](Cc2ccc3ccccc3c2)NC(=O)[C@@H](CCCNC(=N)N)NC(=O)[C@H](CCCNC(=N)N)NC(=O)[C@@H](CCCNC(=N)N)NC1=O [IFX-085, c[Arg-arg-Arg-arg-NaI-naI-NaI]] (cyclo(R[dR]R[dR][2Nal][d2Nal][2Nal]))			12.5 mg/L (≈ 10.3 µM)		145 µg/mL
N=C(N)NCCC[C@@H]1NC(=O)[C@H](CCCNC(=N)N)NC(=O)[C@H](CCCNC(=N)N)NC(=O)[C@@H](Cc2ccc3ccccc3c2)NC(=O)[C@@H](Cc2ccc3ccccc3c2)NC(=O)[C@@H](Cc2ccc3ccccc3c2)NC(=O)[C@H](CCCNC(=N)N)NC1=O [IFX-086, c[Arg-Arg-Arg-Arg-naI-naI-naI]] (cyclo(RRRR[d2Nal][d2Nal][d2Nal]))			12.5 mg/L (≈ 10.3 µM)		155 µg/mL
N=C(N)NCCC[C@H]1NC(=O)[C@H](Cc2ccc3ccccc3c2)NC(=O)[C@H](Cc2ccc3ccccc3c2)NC(=O)[C@H](Cc2ccc3ccccc3c2)NC(=O)[C@@H](CCCNC(=N)N)NC(=O)[C@@H](CCCNC(=N)N)NC(=O)[C@@H](CCCNC(=N)N)NC1=O [IFX-087, c[arg-arg-arg-arg-NaI-NaI-NaI]] (cyclo([dR][dR][dR][dR][2Nal][2Nal][2Nal]))			12.5 mg/L (≈ 10.3 µM)		145 µg/mL
N=C(N)NCCC[C@@H]1NC(=O)[C@H](CCCNC(=N)N)NC(=O)[C@@H](Cc2ccc3ccccc3c2)NC(=O)[C@@H](Cc2ccc3ccccc3c2)NC(=O)[C@H](Cc2c[nH]c3ccccc23)NC(=O)[C@@H](CCCNC(=N)N)NC(=O)[C@@H](CCCNC(=N)N)NC1=O [IFX-116, c[Arg-Arg-arg-arg-Trp-naI-naI]] (cyclo(RR[dR][dR]W[d2Nal][d2Nal]))			32 mg/L (≈ 26.5 µM)	32 mg/L (≈ 26.5 µM)	480 µg/mL
N=C(N)NCCC[C@@H]1NC(=O)[C@H](CCCNC(=N)N)NC(=O)[C@@H](CCCNC(=N)N)NC(=O)[C@@H](CCCNC(=N)N)NC(=O)[C@@H](Cc2ccc3ccccc3c2)NC(=O)[C@@H](Cc2ccc3ccccc3c2)NC(=O)[C@H](Cc2c[nH]c3ccccc23)NC1=O [IFX-117, c[arg-arg-Arg-Arg-Trp-naI-naI]] (cyclo([dR][dR]RRW[d2Nal][d2Nal]))			32 mg/L (≈ 26.5 µM)	32 mg/L (≈ 26.5 µM)	190 µg/mL
N=C(N)NCCC[C@@H]1NC(=O)[C@H](CCCNC(=N)N)NC(=O)[C@@H](Cc2ccc3ccccc3c2)NC(=O)[C@@H](Cc2ccc3ccccc3c2)NC(=O)[C@@H](Cc2c[nH]c3ccccc23)NC(=O)[C@@H](CCCNC(=N)N)NC(=O)[C@@H](CCCNC(=N)N)NC1=O [IFX-118, c[Arg-Arg-arg-arg-trp-naI-naI]] (cyclo(RR[dR][dR][dW][d2Nal][d2Nal]))	3.1 mg/L (≈ 2.57 µM)		16 mg/L (≈ 13.3 µM)	16 mg/L (≈ 13.3 µM)	210 µg/mL
N=C(N)NCCC[C@@H]1NC(=O)[C@H](CCCNC(=N)N)NC(=O)[C@@H](CCCNC(=N)N)NC(=O)[C@@H](CCCNC(=N)N)NC(=O)[C@@H](Cc2ccc3ccccc3c2)NC(=O)[C@@H](Cc2ccc3ccccc3c2)NC(=O)[C@@H](Cc2c[nH]c3ccccc23)NC1=O [IFX-119, c[arg-arg-Arg-Arg-trp-naI-naI]] (cyclo([dR][dR]RR[dW][d2Nal][d2Nal]))			32 mg/L (≈ 26.5 µM)	16 mg/L (≈ 13.3 µM)	200 µg/mL
N=C(N)NCCC[C@@H]1NC(=O)[C@H](Cc2ccc3ccccc3c2)NC(=O)[C@H](Cc2ccc3ccccc3c2)NC(=O)[C@@H](Cc2c[nH]c3ccccc23)NC(=O)[C@@H](CCCNC(=N)N)NC(=O)[C@@H](CCCNC(=N)N)NC(=O)[C@H](CCCNC(=N)N)NC1=O [IFX-120, c[Arg-Arg-arg-arg-trp-NaI-NaI]] (cyclo(RR[dR][dR][dW][2Nal][2Nal]))			32 mg/L (≈ 26.5 µM)	32 mg/L (≈ 26.5 µM)	195 µg/mL
N=C(N)NCCC[C@@H]1NC(=O)[C@H](CCCNC(=N)N)NC(=O)[C@@H](CCCNC(=N)N)NC(=O)[C@@H](CCCNC(=N)N)NC(=O)[C@H](Cc2ccc3ccccc3c2)NC(=O)[C@H](Cc2ccc3ccccc3c2)NC(=O)[C@@H](Cc2c[nH]c3ccccc23)NC1=O [IFX-121, c[arg-arg-Arg-Arg-trp-NaI-NaI]] (cyclo([dR][dR]RR[dW][2Nal][2Nal]))	6.2 mg/L (≈ 5.14 µM)		32 mg/L (≈ 26.5 µM)	32 mg/L (≈ 26.5 µM)	425 µg/mL
N=C(N)NCCC[C@H]1NC(=O)[C@@H](CCCNC(=N)N)NC(=O)[C@@H](CCCNC(=N)N)NC(=O)[C@@H](Cc2ccc3ccccc3c2)NC(=O)[C@@H](Cc2c[nH]c3ccccc23)NC(=O)[C@@H](Cc2ccc3ccccc3c2)NC(=O)[C@@H](CCCNC(=N)N)NC1=O [IFX-142, c[arg-arg-arg-arg-naI-trp-naI]] (cyclo([dR][dR][dR][dR][d2Nal][dW][d2Nal]))	3.1 mg/L (≈ 2.57 µM)		32 mg/L (≈ 26.5 µM)	16 mg/L (≈ 13.3 µM)	285 µg/mL
